The nature of series [1]: Simulated Intestinal Fluid (SIF) Stability Assay. In kind it is in vitro ADME. The settings on record: 37° C.; for half-life: simulated gi fluid, porcine pancreatin; for half-life at 22 μM: pig, simulated intestinal fluid (SIF) with 1% porcine pancreatin, pH 6.5, porcine pancreatin. A digest of the protocol: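 Percent peptide remaining over time was measured by LC-MS/MS as the peak-area ratio to internal standard, and a first-order decay fit gave half-life. Digests contained 22 μM peptide and 1% pancreatin in pH 6.5 FaSSIF buffer at 37° C. Aliquots were quenched in organic solvent with formic acid.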

The nature of series [2]: Simulated Gastric Fluid (SGF) Stability Assay. Format: in vitro ADME. The note with it: pH 2, 37° C.; for half-life: simulated gi fluid, porcine pepsin; for half-life at 20 μM: pig, simulated gastric fluid (SGF) with porcine pepsin. As for the experimental part:
Simulated Gastric Fluid (SGF) Stability Assays
Studies were carried out in simulated gastric fluid (SGF) to evaluate intestinal stability of the peptide molecules of the instant invention. SGF was prepared by adding 20 mg NaCl, 32 mg porcine pepsin (MP Biochemicals, catalog 02102599), and 70 μl HCl to 10 ml water (final pH=2). Aliquots of SGF (0.5 ml each) were pre-warmed at 37° C. To start the reaction, 1 μl of peptide stock solution (10 mM in DMSO) was added to 0.5 ml SGF and thoroughly mixed such that the final peptide concentration was 20 μM. The reactions were incubated at 37° C. with gentle shaking. At each time point (0, 15, 30, 60 min) 50 μl aliquots were removed and added to 200 μl acetonitrile containing 0.1% formic acid to quench the reaction. Samples are stored at 4° C. until the end of the experiment and centrifuged at 10,000 rpm for 5 minutes. Aliquots of the supernatant were removed, diluted 1:1 into distilled water containing internal standard, and analyzed by LCMS/MS. Percent remaining at each timepoint was calculated based on the peak area response ratio of test to compound to internal standard. Time 0 was set to 100%, and all later timepoints were calculated relative to time 0. Half-lives were calculated by fitting to a first-order exponential decay equation using GraphPad.

The target in the next series is T1, α4β1 (Homo sapiens, UniProt P05556+P13612).
T1 construct: purchased R&D Systems 5668-A4
T1 sequence (P13612 34-977 limits assumed): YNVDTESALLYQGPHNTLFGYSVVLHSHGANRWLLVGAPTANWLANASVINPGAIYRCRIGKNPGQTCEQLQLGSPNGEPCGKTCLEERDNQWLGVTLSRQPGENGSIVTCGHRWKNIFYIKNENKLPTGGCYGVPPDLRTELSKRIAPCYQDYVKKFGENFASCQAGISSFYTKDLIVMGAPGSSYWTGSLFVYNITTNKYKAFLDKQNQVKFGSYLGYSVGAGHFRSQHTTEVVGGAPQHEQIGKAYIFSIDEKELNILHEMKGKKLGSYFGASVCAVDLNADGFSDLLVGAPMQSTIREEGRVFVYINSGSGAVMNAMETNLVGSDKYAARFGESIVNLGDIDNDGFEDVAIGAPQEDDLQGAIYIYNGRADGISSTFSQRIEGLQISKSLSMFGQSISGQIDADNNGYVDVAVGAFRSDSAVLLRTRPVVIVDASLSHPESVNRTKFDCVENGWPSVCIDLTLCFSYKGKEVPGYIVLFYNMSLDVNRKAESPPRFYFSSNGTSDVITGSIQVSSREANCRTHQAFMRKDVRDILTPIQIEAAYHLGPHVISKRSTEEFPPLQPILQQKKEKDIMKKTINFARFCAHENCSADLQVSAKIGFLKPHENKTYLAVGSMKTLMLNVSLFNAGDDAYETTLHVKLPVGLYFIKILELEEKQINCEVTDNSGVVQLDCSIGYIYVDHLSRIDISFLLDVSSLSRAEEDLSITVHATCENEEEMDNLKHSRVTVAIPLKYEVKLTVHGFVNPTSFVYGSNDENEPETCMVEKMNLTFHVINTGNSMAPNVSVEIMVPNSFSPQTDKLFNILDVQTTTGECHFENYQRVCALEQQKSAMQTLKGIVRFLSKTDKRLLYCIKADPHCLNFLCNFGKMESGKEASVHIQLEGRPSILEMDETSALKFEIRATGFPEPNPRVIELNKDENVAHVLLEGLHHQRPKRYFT
T1 sequence (P05556 21-728 limits assumed): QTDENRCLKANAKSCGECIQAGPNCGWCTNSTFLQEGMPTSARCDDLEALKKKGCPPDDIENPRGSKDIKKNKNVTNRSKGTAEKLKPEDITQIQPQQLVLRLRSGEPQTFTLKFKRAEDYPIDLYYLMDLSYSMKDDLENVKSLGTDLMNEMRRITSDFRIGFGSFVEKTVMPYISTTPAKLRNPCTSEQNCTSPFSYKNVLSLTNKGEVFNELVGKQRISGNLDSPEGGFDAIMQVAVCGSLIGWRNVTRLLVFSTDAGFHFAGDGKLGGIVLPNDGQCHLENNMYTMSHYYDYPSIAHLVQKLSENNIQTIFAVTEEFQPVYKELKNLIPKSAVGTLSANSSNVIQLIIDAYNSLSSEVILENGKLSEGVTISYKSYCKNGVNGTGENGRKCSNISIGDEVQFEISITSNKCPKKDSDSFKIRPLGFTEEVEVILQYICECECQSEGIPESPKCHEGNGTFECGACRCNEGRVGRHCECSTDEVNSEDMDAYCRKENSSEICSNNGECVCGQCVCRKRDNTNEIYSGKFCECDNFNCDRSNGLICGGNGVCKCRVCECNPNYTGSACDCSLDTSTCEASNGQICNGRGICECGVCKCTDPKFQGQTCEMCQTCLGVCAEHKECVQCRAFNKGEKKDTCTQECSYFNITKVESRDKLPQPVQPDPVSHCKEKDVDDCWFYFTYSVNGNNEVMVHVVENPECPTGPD
The series can be described thus: α4β1-VCAM Competition ELISA. The note with it: thioether peptide dimers, Table 7; read-out: ELISA A4B1. In kind it is binding. As for the experimental part: α4β1-VCAM Competition ELISA
A Nunc MaxiSorp plate was coated with rh VCAM-1/CD106 Fc chimera (R&D #862-VC) at 400 ng/well in 50 ul per well in 1×PBS and incubated overnight at 4° C. The solution was removed by shaking and then blocked with 250 ul of 1% BSA in 1×PBS per well. The wells were then incubated at room temperature for 1 hr with shaking. Each well was then washed once with wash buffer (50 mM Tris-HCl pH7.6, 100 mM NaCL, 1 mM MnCl2 or MgCl2, 0.05% Tween-20). 25 ul of serial dilutions of peptides starting at 200 μM in assay buffer (Assay buffer: 50 mM Tris-HCl pH7.6, 100 mM NaCl, 1 mM MnCl2 or MgCl2, 0.05% Tween-20) was added to each well. Additionally, 25 μl of α4β1 (R&D Systems #5668-A4) was added to each well at a fixed concentration of 120 nM. The final peptide and α4β1 concentrations were 100 μM and 60 nM, respectively. The plates were then incubated at 37° C. for 2 hr. The solution was then removed by shaking and each well was washed three times with wash buffer. 50 ul of 9F10 antibody at 4 ug/ml (purified mouse anti-human CD49d, BD Bioscience Cat #555502) was then added to each well, and the plate was incubated at room temperature for Ihr with shaking. The solution was again removed by shaking, and each well was washed three times with wash buffer. 50 μl of peroxidase-conjugated AffiniPure Goat anti-mouse IgG (Jackson immune research cat #115-035-003) diluted in 1:5000 in assay buffer was added to each well. The plate was incubated at room temperature for 30 min with shaking. Each well was then washed 3 times with wash buffer. 100 ul of TMB was then added to each well and closely observe during developing time. The reaction was stepped with 2N H2SO4 and absorbance was read at 450 nm.

In a further series the target is Jurkat E6.1 cells (Homo sapiens, UniProt P05556+P13612). The series can be described thus: α4β1-VCAM Cell Adhesion Assay. Format: cell-based. The note with it: thioether peptide dimers, Table 7; read-out: Cell Adhesion A4B1. As for the experimental part:
α4β1-VCAM Cell Adhesion Assay
Jurkat E6.1 cells (Sigma #88042803) were cultured in RPMI 1640 HEPES medium (Invitrogen #22400-089) supplemented with 10% serum (Fetal Bovine Serum, Invitrogen #16140-071), 1 mM sodium pyruvate (Invitrogen #11360-070), 2 mM L-glutamine (Invitrogen #25030-081) and Penicillin-Streptomycin (Invitrogen #15140-122) at 100 units of penicillin and 100 μg of streptomycin per ml. The cells were washed two times in DMEM medium (ATCC #30-2002) supplemented with 0.1% BSA, 10 mM HEPES pH 7 and 1 mM MnCl2. The cells were re-suspended in supplemented DMEM medium at a density of 4×10^6 cells/ml.
A Nunc MaxiSorp plate was coated with rh VCAM-1/CD106 Fc chimera (R&D #862-VC) at 400 ng per well in 50 μl per well in 1×PBS and incubated at 4° C. overnight. The solution was then removed by shaking, blocked with 250 μl per well PBS containing 1% BSA, and incubated at 37° C. for 1 hr. The solution was removed by shaking. Peptides were diluted by serial dilution in a final volume of 50 μl per well (2× concentration). To each well, 50 μl of cells (200,000 cells) were added and the plate was incubated at 37° C., 5% CO2 for 30-45 min to allow cell adhesion. The wells were washed manually three times (100 μl per wash) with supplemented DMEM. After the final wash, 100 μl/well of supplemented DMEM and 10 ul/well of MTT reagent (ATTC cat #30-1010K) were added. The plate was incubated at 37° C., 5% CO2 for 2-3 hrs until a purple precipitate is visible. 100 ul of Detergent Reagent (ATTC cat #30-1010K) is added to each well. The plate was covered from the light, wrapped in Parafilm to prevent evaporation, and left overnight at room temperature in the dark. The plate was shaken for 5 min and the absorbance at 570 nm is measured. To calculate the dose response, the absorbance value of control wells not containing cells was subtracted from each test well.

This is an account of results in patent US20260217767A1, “NOVEL A4B7 THIOETHER PEPTIDE DIMER ANTAGONISTS” (Protagonist Therapeutics, Inc., priority 2014, published 2026).

The structures appear in SMILES notation. *1 amine or outer side, *2 acyl side, *3 side chain or, on linkers, in order; H or OH if unused. Where a SMILES comes first, the peptide text is derived from it. Bridges are numbered along the chain shown (N, C = ends). Roman numbers before positions name the chains, in order. [ ]: non-standard residue; d: D form. Diglycolyl = O=C(COCC(=O)[*:2])[*:1]; NMeR = CN[C@@H](CCCNC(=N)N)C(=O)O; β3hE = N[C@@H](CCC(=O)O)CC(=O)O; X1 = O=C(c1ccccc1C[*:2])[*:1]; Pen = CC(C)(S)[C@H](N)C(=O)O Some results are limits rather than exact numbers.

Jurkat E6.1 cells, sequence (P13612 34-1032): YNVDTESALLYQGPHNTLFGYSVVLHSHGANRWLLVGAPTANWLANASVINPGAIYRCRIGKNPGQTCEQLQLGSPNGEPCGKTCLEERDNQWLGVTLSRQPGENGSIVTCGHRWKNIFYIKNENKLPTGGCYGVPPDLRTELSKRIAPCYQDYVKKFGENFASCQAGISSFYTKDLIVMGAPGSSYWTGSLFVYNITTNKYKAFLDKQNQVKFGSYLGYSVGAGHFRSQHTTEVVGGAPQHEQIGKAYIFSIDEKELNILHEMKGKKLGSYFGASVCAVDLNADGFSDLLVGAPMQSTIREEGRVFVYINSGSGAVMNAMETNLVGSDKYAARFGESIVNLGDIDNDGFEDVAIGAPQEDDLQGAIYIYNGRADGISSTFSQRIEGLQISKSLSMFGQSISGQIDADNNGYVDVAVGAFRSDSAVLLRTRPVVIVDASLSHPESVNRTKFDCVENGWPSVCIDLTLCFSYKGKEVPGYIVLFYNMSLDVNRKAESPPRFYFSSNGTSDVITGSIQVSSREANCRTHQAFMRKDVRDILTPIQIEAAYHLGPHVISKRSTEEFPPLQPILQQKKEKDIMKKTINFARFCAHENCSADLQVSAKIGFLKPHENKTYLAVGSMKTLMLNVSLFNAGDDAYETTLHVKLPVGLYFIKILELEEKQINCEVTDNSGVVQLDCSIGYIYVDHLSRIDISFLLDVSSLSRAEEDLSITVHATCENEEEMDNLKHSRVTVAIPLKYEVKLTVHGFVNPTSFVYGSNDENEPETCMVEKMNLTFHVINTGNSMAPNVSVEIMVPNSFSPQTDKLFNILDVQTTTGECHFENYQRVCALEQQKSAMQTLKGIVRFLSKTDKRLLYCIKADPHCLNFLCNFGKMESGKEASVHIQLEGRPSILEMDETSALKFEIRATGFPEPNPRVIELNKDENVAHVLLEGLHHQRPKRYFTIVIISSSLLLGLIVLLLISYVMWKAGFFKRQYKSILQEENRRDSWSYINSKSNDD
Jurkat E6.1 cells, sequence (P05556 21-798): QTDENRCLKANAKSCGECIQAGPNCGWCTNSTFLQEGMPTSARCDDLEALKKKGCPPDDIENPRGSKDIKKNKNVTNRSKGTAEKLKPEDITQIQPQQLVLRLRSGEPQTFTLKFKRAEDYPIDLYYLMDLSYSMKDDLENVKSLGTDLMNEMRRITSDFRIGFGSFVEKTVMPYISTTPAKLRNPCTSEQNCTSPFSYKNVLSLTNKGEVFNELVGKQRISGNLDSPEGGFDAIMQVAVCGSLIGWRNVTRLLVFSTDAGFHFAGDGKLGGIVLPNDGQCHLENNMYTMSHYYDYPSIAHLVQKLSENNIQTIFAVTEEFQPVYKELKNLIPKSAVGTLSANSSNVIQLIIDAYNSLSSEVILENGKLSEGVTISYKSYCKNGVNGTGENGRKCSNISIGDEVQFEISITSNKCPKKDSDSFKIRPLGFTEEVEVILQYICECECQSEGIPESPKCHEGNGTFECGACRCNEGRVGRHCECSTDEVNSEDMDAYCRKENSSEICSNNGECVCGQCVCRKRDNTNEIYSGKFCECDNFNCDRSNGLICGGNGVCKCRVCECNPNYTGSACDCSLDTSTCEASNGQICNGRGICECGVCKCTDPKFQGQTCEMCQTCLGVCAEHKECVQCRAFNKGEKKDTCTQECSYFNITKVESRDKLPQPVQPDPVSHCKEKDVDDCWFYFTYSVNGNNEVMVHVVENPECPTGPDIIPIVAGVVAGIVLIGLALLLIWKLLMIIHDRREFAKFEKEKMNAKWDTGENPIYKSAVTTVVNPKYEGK

For the molecule `CC(C)C[C@@H]1NC(=O)[C@H]([C@@H](C)O)NC(=O)[C@H](CC(=O)O)NC(=O)[C@H](CO)NC(=O)[C@H](CCCNC(=N)N)N(C)C(=O)c2ccccc2CSC(C)(C)[C@@H](C(=O)N[C@@H](Cc2c[nH]c3ccccc23)C(=O)N[C@H](CCC(=O)O)C(N)=O)NC1=O` [compound 97] (HELM PEPTIDE1{[meR].S.D.T.L.[Pen].W.[dE].[am]}|CHEM1{[O=C(c1ccccc1C[*:2])[*:1]]}$PEPTIDE1,CHEM1,1:R1-1:R1|PEPTIDE1,CHEM1,6:R3-1:R2$$$V2.0), the half-life in series [1] (monomers, Table 6) was more than 3 h; in series [2] (monomers, Table 6) it was more than 3 h.
`CC(C)C[C@@H]1NC(=O)[C@H]([C@@H](C)O)NC(=O)[C@H](CC(=O)O)NC(=O)[C@H](CO)NC(=O)[C@H](CCCNC(=N)N)N(C)C(=O)c2ccccc2CSC(C)(C)[C@@H](C(=O)N[C@@H](Cc2c[nH]c3ccccc23)C(=O)N[C@H](CCC(=O)O)C(=O)N[C@H](CCCCN)C(N)=O)NC1=O` [compound 150] (HELM PEPTIDE1{[meR].S.D.T.L.[Pen].W.[dE].[dK].[am]}|CHEM1{[O=C(c1ccccc1C[*:2])[*:1]]}$PEPTIDE1,CHEM1,1:R1-1:R1|PEPTIDE1,CHEM1,6:R3-1:R2$$$V2.0): the half-life in series [1] (dimers, Table 7) was more than 3 h; in series [2] (dimers, Table 7), more than 3 h.
Regarding `CC(C)C[C@@H]1NC(=O)[C@H]([C@@H](C)O)NC(=O)[C@H](CC(=O)O)NC(=O)[C@H](CO)NC(=O)[C@H](CCCNC(=N)N)N(C)C(=O)c2ccccc2CSC(C)(C)[C@@H](C(=O)N[C@@H](Cc2c[nH]c3ccccc23)C(=O)N[C@@H](CCC(=O)O)C(=O)N(C)[C@H](CCCCN)C(N)=O)NC1=O` [compound 152] (HELM PEPTIDE1{[meR].S.D.T.L.[Pen].W.E.[CN([C@H](CCCCN)C(=O)[*:2])[*:1]].[am]}|CHEM1{[O=C(c1ccccc1C[*:2])[*:1]]}$PEPTIDE1,CHEM1,1:R1-1:R1|PEPTIDE1,CHEM1,6:R3-1:R2$$$V2.0), the IC50 on α4β1 is 0.025 to 0.1 µM; at Jurkat E6.1 cells, more than 100 µM. The half-life at 22 μM in series [1] (dimers, Table 7) was more than 3 h. Besides, in series [2] (dimers, Table 7), the half-life at 20 μM is more than 1 h.
The matching figures for `CC(C)C[C@@H]1NC(=O)[C@H]([C@@H](C)O)NC(=O)[C@H](CC(=O)O)NC(=O)[C@H](CO)NC(=O)[C@H](CCCNC(=N)N)N(C)C(=O)c2ccccc2CSC(C)(C)[C@@H](C(=O)N[C@@H](Cc2ccccc2)C(=O)N[C@@H](CCC(=O)O)CC(=O)N[C@H](CCCCN)C(N)=O)NC1=O` [compound 164] (HELM PEPTIDE1{[meR].S.D.T.L.[Pen].F.[O=C(O)CC[C@@H](CC(=O)[*:2])N[*:1]].[dK].[am]}|CHEM1{[O=C(c1ccccc1C[*:2])[*:1]]}$PEPTIDE1,CHEM1,1:R1-1:R1|PEPTIDE1,CHEM1,6:R3-1:R2$$$V2.0): 0.025 to 0.1 µM, more than 100 µM, more than 3 h and more than 1 h.
Take `CC(C)C[C@@H]1NC(=O)[C@H]([C@@H](C)O)NC(=O)[C@H](CC(=O)O)NC(=O)[C@H](CO)NC(=O)[C@H](CCCNC(=N)N)N(C)C(=O)c2ccccc2CSC(C)(C)[C@@H](C(=O)N[C@@H](Cc2ccc(O)cc2)C(=O)N[C@@H](CCC(=O)O)CC(=O)N[C@H](CCCCNC(=O)COCC(=O)NCCCC[C@@H](NC(=O)C[C@H](CCC(=O)O)NC(=O)[C@H](Cc2ccc(O)cc2)NC(=O)[C@H]2NC(=O)[C@H](CC(C)C)NC(=O)[C@H]([C@@H](C)O)NC(=O)[C@H](CC(=O)O)NC(=O)[C@H](CO)NC(=O)[C@H](CCCNC(=N)N)N(C)C(=O)c3ccccc3CSC2(C)C)C(N)=O)C(N)=O)NC1=O` [compound 165] (I: [NMeR]SDTL[Pen]Y[β3hE][dK]-NH2 / II: [NMeR]SDTL[Pen]Y[β3hE][dK]-NH2; linker I:9-II:9 via Diglycolyl; linker I:N-I:6, II:N-II:6 via X1): in series [1] (dimers, Table 7), the half-life at 22 μM was more than 3 h. For the same molecule, the half-life at 20 μM in series [2] (dimers, Table 7) was more than 1 h.
On to `CC(C)C[C@@H]1NC(=O)[C@H]([C@@H](C)O)NC(=O)[C@H](CC(=O)O)NC(=O)[C@H](CO)NC(=O)[C@H](CCCNC(=N)N)N(C)C(=O)c2ccccc2CSC(C)(C)[C@@H](C(=O)N[C@@H](Cc2ccc(O)cc2)C(=O)N[C@H](CCC(=O)O)C(=O)N[C@H](CCCCN)C(N)=O)NC1=O` [compound 169] (HELM PEPTIDE1{[meR].S.D.T.L.[Pen].Y.[dE].[dK].[am]}|CHEM1{[O=C(c1ccccc1C[*:2])[*:1]]}$PEPTIDE1,CHEM1,1:R1-1:R1|PEPTIDE1,CHEM1,6:R3-1:R2$$$V2.0), for which the IC50 is 0.1 to 1 µM on α4β1 and more than 100 µM on Jurkat E6.1 cells. This molecule also yielded a half-life at 22 μM in series [1] (dimers, Table 7) of more than 3 h. In series [2] (dimers, Table 7), this molecule yielded a half-life at 20 μM of more than 3 h.
